Experimental data as given in the kinase profiling compilation of Christmann-Franck et al. (2016).

Experiments:
Assay in all cases: radiometric filter-binding kinase assay
MAP3K9 (human) = MAP3K9 (human) (UniProt P80192)
EPHB1 (human) = EPHB1 (human) (UniProt P54762); conditions: compound 1.0 µM
MAPK13 (human) = MAPK13 (human) (UniProt O15264)
LCK (mouse) = conditions: accession and sequence are those of the human protein
SRPK1 (human) = SRPK1 (human) (UniProt Q96SB4)
PIM3 (human) = PIM3 (human) (UniProt Q86V86)
[1] = system: AKT2 (human), P31751 [S474D]
Chain of AKT2 (human), P31751 [S474D] (P31751 whole entry S474D, looked up): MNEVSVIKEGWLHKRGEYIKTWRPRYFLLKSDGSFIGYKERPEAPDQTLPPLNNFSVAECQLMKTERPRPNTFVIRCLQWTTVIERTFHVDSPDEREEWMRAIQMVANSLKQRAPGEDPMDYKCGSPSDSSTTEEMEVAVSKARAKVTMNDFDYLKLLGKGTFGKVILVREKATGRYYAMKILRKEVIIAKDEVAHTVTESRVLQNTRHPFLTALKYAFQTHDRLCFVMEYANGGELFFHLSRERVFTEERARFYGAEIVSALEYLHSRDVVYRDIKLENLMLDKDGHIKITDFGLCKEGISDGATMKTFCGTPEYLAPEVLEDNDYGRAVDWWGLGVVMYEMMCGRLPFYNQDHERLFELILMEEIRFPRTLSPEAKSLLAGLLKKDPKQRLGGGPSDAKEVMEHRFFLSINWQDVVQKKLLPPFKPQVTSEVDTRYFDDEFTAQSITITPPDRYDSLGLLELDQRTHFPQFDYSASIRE

[2] = system: PAK2 (human), Q13177 [T402E]
MAPK10 (human) = MAPK10 (human) (UniProt P53779)
Chain of MAPK10 (human) (P53779 whole entry, looked up): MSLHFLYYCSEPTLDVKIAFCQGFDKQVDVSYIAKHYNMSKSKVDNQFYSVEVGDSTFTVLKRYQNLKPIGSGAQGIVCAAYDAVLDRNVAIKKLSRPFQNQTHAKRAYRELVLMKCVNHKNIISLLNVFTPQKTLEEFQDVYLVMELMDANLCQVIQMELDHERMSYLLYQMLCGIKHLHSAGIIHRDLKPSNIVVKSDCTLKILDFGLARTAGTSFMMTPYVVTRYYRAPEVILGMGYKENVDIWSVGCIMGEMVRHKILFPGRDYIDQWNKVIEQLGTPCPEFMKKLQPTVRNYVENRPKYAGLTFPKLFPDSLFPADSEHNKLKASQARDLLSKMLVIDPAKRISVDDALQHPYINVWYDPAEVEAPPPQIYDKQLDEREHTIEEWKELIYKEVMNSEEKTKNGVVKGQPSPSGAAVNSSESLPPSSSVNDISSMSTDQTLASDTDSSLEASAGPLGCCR

PHKG1 (human) = PHKG1 (human) (UniProt Q16816)
Chain of PHKG1 (human) (Q16816 whole entry, looked up): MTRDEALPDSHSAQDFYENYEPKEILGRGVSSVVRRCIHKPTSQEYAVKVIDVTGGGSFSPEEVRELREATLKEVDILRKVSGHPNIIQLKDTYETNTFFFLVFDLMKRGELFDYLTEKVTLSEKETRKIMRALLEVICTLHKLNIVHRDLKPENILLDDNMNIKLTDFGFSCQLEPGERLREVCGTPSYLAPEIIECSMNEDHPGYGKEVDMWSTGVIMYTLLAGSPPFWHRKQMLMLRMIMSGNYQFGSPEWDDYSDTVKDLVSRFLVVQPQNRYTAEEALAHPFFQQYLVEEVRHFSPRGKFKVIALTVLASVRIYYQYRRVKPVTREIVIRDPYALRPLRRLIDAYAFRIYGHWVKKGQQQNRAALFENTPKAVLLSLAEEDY

MYLK (human) = MYLK (human) (UniProt Q15746)
EPHA2 (human) = EPHA2 (human) (UniProt P29317)
PKN2 (human) = PKN2 (human) (UniProt Q16513)
CSNK2A1 (human) = CSNK2A1 (human) (UniProt P68400); conditions: compound 10.0 µM
[3] = molecular target: STK11 CAB39 STRADA (human) (UniProt Q9Y376+Q7RTN6+Q15831)
TTK (human) = TTK (human) (UniProt P33981)
Chain of TTK (human) (P33981 whole entry, looked up): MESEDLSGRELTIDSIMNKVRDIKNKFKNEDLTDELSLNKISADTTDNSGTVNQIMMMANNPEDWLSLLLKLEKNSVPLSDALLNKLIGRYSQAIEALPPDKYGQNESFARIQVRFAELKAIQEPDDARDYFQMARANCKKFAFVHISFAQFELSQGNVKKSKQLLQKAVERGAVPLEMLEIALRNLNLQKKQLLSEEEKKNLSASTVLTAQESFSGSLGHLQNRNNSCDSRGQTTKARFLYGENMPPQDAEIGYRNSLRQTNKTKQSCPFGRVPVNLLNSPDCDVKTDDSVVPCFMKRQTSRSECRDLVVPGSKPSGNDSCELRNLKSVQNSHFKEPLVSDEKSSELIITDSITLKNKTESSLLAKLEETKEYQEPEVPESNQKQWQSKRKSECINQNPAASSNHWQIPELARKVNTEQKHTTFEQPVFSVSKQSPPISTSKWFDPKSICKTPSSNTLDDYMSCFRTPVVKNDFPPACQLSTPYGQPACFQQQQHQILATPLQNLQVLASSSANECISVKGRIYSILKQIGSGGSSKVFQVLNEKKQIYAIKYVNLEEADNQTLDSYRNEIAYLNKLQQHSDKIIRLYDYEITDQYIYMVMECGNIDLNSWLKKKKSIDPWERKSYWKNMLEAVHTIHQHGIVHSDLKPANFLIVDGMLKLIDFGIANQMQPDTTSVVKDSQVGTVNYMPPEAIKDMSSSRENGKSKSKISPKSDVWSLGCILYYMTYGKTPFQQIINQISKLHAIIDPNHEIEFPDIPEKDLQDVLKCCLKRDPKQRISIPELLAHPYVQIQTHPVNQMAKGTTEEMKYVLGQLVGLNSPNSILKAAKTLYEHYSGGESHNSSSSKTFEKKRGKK

MAP2K1 (human) = MAP2K1 (human) (UniProt Q02750)
FGFR1 (human) = FGFR1 (human) (UniProt P11362)
DYRK3 (human) = DYRK3 (human) (UniProt O43781)
Chain of DYRK3 (human) (O43781 whole entry, looked up): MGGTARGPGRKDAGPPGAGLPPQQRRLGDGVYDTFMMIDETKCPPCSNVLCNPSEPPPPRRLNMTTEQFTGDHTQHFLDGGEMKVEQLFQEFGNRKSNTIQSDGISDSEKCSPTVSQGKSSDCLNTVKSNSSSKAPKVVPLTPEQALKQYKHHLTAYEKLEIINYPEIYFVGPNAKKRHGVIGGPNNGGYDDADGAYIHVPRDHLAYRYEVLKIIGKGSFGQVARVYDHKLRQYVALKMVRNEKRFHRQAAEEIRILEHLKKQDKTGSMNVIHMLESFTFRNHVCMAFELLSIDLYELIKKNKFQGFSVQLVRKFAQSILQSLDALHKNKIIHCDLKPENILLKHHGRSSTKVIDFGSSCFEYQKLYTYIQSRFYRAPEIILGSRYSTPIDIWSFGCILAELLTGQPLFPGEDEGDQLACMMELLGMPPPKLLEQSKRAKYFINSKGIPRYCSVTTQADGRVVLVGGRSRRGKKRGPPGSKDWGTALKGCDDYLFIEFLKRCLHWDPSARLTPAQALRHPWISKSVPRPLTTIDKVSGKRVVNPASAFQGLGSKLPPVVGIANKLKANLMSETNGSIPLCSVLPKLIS

MARK1 (human) = MARK1 (human) (UniProt Q9P0L2)
MARK2 (human) = MARK2 (human) (UniProt Q7KZI7); conditions: compound 1.0 µM
NEK2 (human) = NEK2 (human) (UniProt P51955)
[4] = system: AKT1 (human), P31749 [S473D]
MKNK1 (human) = MKNK1 (human) (UniProt Q9BUB5)
MAP2K6 (human) = MAP2K6 (human) (UniProt P52564)
INSR (human) = INSR (human) (UniProt P06213)
TBK1 (human) = TBK1 (human) (UniProt Q9UHD2)
Chain of TBK1 (human) (Q9UHD2 whole entry, looked up): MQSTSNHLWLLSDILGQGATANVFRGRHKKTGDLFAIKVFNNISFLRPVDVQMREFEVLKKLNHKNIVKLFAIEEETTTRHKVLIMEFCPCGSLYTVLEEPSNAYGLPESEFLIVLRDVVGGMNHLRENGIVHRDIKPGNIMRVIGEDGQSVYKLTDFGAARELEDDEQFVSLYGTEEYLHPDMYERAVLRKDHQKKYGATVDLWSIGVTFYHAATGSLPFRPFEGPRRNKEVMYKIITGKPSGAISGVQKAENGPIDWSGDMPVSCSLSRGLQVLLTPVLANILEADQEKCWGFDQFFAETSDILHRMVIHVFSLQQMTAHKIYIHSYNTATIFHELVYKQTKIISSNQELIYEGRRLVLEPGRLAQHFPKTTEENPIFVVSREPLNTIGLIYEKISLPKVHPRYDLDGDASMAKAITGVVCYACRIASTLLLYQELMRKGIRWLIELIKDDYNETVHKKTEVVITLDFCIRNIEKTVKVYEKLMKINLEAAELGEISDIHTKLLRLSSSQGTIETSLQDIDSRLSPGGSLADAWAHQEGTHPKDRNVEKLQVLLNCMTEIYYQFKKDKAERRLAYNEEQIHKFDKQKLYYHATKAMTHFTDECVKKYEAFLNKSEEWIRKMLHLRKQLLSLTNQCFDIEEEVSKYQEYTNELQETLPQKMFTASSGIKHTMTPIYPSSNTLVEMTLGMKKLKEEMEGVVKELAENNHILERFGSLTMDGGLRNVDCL

[5] = system: RPS6KB1 (human), P23443 [T412E]
SYK (human) = SYK (human) (UniProt P43405)
INSRR (human) = INSRR (human) (UniProt P14616)
PIM2 (human) = PIM2 (human) (UniProt Q9P1W9)
ROCK2 (rat) = conditions: accession and sequence are those of the human protein
NEK6 (human) = NEK6 (human) (UniProt Q9HC98)
Chain of NEK6 (human) (Q9HC98 whole entry, looked up): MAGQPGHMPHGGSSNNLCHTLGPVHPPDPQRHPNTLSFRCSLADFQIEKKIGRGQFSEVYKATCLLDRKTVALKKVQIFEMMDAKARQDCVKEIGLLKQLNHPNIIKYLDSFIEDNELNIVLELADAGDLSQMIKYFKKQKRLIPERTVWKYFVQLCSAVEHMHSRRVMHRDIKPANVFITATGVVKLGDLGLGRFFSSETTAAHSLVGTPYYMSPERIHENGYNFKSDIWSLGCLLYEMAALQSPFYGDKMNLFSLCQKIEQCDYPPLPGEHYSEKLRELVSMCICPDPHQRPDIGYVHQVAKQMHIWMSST

GSK3B (human) = GSK3B (human) (UniProt P49841)
MAPK11 (human) = MAPK11 (human) (UniProt Q15759)
IRAK4 (human) = IRAK4 (human) (UniProt Q9NWZ3)

Chain of SRPK1 (human) (Q96SB4 whole entry, looked up): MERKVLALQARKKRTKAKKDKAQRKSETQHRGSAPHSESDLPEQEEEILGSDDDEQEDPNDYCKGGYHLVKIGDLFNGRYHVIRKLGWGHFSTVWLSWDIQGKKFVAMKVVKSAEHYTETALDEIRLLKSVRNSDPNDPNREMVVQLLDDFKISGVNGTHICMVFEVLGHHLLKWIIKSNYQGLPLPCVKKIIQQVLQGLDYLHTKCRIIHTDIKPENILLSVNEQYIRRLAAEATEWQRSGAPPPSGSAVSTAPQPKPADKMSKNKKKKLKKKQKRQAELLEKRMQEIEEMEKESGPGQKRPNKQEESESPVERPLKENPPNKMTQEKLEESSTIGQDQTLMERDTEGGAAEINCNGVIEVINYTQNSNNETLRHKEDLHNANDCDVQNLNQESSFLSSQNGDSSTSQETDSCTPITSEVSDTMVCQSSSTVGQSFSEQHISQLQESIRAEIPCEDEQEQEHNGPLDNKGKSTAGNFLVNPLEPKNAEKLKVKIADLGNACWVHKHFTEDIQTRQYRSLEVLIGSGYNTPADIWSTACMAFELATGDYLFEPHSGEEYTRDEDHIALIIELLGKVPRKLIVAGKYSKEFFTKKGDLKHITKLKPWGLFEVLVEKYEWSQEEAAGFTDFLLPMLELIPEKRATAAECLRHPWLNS

Work on NC(=O)c1c(NC(=O)C2CC2)sc2c1CCCC2 yielded a residual activity (MAP3K9 (human); compound 1.0 µM) of 72%, a residual activity (MAP3K9 (human); compound 10.0 µM) of 32% and a residual activity (EPHB1 (human)) of 117%. For the same molecule, the residual activity (MAPK13 (human); compound 1.0 µM) was 116%, the residual activity (MAPK13 (human); compound 10.0 µM) was 97% and the residual activity (LCK (mouse); compound 1.0 µM) was 98%. The residual activity (LCK (mouse); compound 10.0 µM) was 77%, the residual activity (SRPK1 (human); compound 1.0 µM) was 97% and the residual activity (SRPK1 (human); compound 10.0 µM) was 93%. It also gave a residual activity (PIM3 (human); compound 1.0 µM) of 111%, a residual activity (PIM3 (human); compound 10.0 µM) of 68% and a residual activity ([1]; compound 1.0 µM) of 100%. It also gave a residual activity ([1]; compound 10.0 µM) of 96%, a residual activity ([2]; compound 1.0 µM) of 92% and a residual activity ([2]; compound 10.0 µM) of 96%. For the same molecule, the residual activity (MAPK10 (human); compound 1.0 µM) was 94%, the residual activity (MAPK10 (human); compound 10.0 µM) was 84% and the residual activity (PHKG1 (human); compound 1.0 µM) was 108%. For the same molecule, the residual activity (PHKG1 (human); compound 10.0 µM) was 62%, the residual activity (MYLK (human); compound 1.0 µM) was 96% and the residual activity (MYLK (human); compound 10.0 µM) was 49%. The residual activity (EPHA2 (human); compound 1.0 µM) was 87%, the residual activity (EPHA2 (human); compound 10.0 µM) was 52% and the residual activity (PKN2 (human); compound 1.0 µM) was 106%. For the same molecule, the residual activity (PKN2 (human); compound 10.0 µM) was 97%, the residual activity (CSNK2A1 (human)) was 106% and the residual activity ([3]; compound 1.0 µM) was 91%. It also gave a residual activity ([3]; compound 10.0 µM) of 81%, a residual activity (TTK (human); compound 1.0 µM) of 100% and a residual activity (TTK (human); compound 10.0 µM) of 80%. It also gave a residual activity (MAP2K1 (human); compound 1.0 µM) of 92%, a residual activity (MAP2K1 (human); compound 10.0 µM) of 88% and a residual activity (FGFR1 (human); compound 1.0 µM) of 105%. For the same molecule, the residual activity (FGFR1 (human); compound 10.0 µM) was 46%, the residual activity (DYRK3 (human); compound 1.0 µM) was 111% and the residual activity (DYRK3 (human); compound 10.0 µM) was 109%. The residual activity (MARK1 (human); compound 1.0 µM) was 93%, the residual activity (MARK1 (human); compound 10.0 µM) was 67% and the residual activity (MARK2 (human)) was 97%. The residual activity (NEK2 (human); compound 1.0 µM) was 99%, the residual activity (NEK2 (human); compound 10.0 µM) was 92% and the residual activity ([4]; compound 1.0 µM) was 115%. It also gave a residual activity ([4]; compound 10.0 µM) of 102%, a residual activity (MKNK1 (human); compound 1.0 µM) of 97% and a residual activity (MKNK1 (human); compound 10.0 µM) of 77%. It also gave a residual activity (MAP2K6 (human); compound 1.0 µM) of 109%, a residual activity (MAP2K6 (human); compound 10.0 µM) of 99% and a residual activity (INSR (human); compound 1.0 µM) of 101%. For the same molecule, the residual activity (INSR (human); compound 10.0 µM) was 97%, the residual activity (TBK1 (human); compound 1.0 µM) was 99% and the residual activity (TBK1 (human); compound 10.0 µM) was 107%. It also gave a residual activity ([5]; compound 1.0 µM) of 100%, a residual activity ([5]; compound 10.0 µM) of 98% and a residual activity (SYK (human); compound 1.0 µM) of 102%. The residual activity (SYK (human); compound 10.0 µM) was 106%, the residual activity (INSRR (human); compound 1.0 µM) was 97% and the residual activity (INSRR (human); compound 10.0 µM) was 52%. For the same molecule, the residual activity (PIM2 (human); compound 1.0 µM) was 98%, the residual activity (PIM2 (human); compound 10.0 µM) was 92% and the residual activity (ROCK2 (rat); compound 1.0 µM) was 95%. It also gave a residual activity (ROCK2 (rat); compound 10.0 µM) of 91%, a residual activity (NEK6 (human); compound 1.0 µM) of 107% and a residual activity (NEK6 (human); compound 10.0 µM) of 93%. For the same molecule, the residual activity (GSK3B (human); compound 1.0 µM) was 90%, the residual activity (GSK3B (human); compound 10.0 µM) was 42% and the residual activity (MAPK11 (human); compound 1.0 µM) was 99%. The residual activity (MAPK11 (human); compound 10.0 µM) was 98%, the residual activity (IRAK4 (human); compound 1.0 µM) was 68% and the residual activity (IRAK4 (human); compound 10.0 µM) was 28%.
